This passage reports GI50 and TGI results from PubChem BioAssay (NCI).

Each structure is given as a SMILES string. Several values for one entry are separate records, joined by “and”; a condition that tells them apart may be missing. Equal values may be shown once.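 Values below derive from 48-hour exposures of cells grown in 96-well plates, with endpoints linearly interpolated between the two concentrations bracketing the appropriate inhibition level. GI50: concentration for 50% inhibition of growth. TGI marks complete inhibition of growth.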

What all share (test): NCI-60 cell line screen, 48 h
For test [1], the system named is COLO 205 colon.
The subject of test [2] is IGROV1 ovarian.
Test [3] relates to RPMI-8226 leukemia.
Test [4] has as its system CCRF-CEM leukemia.
For test [5], the system named is NCI-H226 lung.
In test [6] the test system is MDA-MB-435.
For test [7], the system named is A498 renal.
Test [8] relates to A549 NSCLC.
In test [9] the test system is SF-268 CNS.
The subject of test [10] is MALME-3M melanoma.

Turning to `COc1ccc(/C=C(/C(=O)N2CCNCC2)c2cc(OC)c(OC)c(OC)c2)cc1O`, the GI50 in [1] was 3.24 µM; in test [2] it was 6.73 µM; in test [3] it was 3.55 µM; in test [4] it was 3.23 µM; in test [5] it was 5.4 µM; in test [6], 418 nM. Also, the GI50 in test [7] is 1.22 µM; in test [8], 6.63 µM; in test [9], 7.23 µM. The TGI was 14 µM in test [1]; more than 100 µM in [2]; more than 100 µM in test [3]; more than 100 µM in [4]; more than 100 µM in test [5]; 1.8 µM in test [6]. Also, the figures for the TGI in [7], in test [8] and in test [9] were 7.33 µM, more than 100 µM and more than 100 µM, respectively.

`N#Cc1c2ccccc2c2nnc3cc(Cl)c(Cl)cc3n12`: the GI50 was 44.5 µM in test [2]; 29.6 µM in test [3]; 85.4 µM in test [4]; more than 100000 nM in [6]; 56.6 µM in test [7]; more than 100000 nM in test [10]. Besides, the GI50 is 47.7 µM in test [8] and 27.7 µM in [9]. Also, the TGI in [2], in test [3], in test [4], in test [6], in test [7] and in test [10] was more than 100 µM each time. The TGI was more than 100 µM in test [8] and 83.3 µM in test [9].

Take `CC1=C(C(=O)Nc2ccc(F)c(Cl)c2)C(c2cccc(Cl)c2)NC(=O)N1` (stereo not given): the GI50 in test [1] was 13.7 µM; in test [2] it was 12.4 µM; in test [3], 16.3 µM; in test [4], 21.2 µM; in test [5], 18.1 µM; in test [6], 17900 nM. The GI50 in [7] was 1.39 µM; in test [8], 24.7 µM; in [9], 17.2 µM. Also, the TGI was determined as 27.8 µM in [1]; 31.3 µM in [2]; 46.9 µM in [3]; 58.2 µM in test [4]; 48.2 µM in test [5]; 38 µM in [6]. In addition, the TGI was 15.5 µM in test [7], 85.1 µM in test [8] and 39.4 µM in test [9].

`Cn1c(=O)c(F)c(Nc2ccc(I)cc2F)c2c(=O)n(C[C@@H](O)CO)cnc21`: the GI50 in test [1] was < 0.01 µM and 0.00271 µM; in [2], 0.106 µM and 0.0179 µM; in test [3], 9.12 µM; in test [6] it was < 10 nM and 6.42 nM; in [7] it was < 0.01 µM and 0.0103 µM; in test [10] it was < 10 nM and 1.77 nM. Moreover, the GI50 was 0.234 µM and 0.11 µM in test [8]; 10.4 µM in test [9]. For the same molecule, the TGI in test [2] is 20.8 µM; in [3], more than 91.8 µM; in test [4], 52 µM and > 7.18 µM; in [6], 41.1 µM; in test [7] it was 0.0305 µM and 0.0752 µM; in [10], less than 0.01 µM. In addition, the TGI in test [8] was 58.7 µM and > 4.08 µM; in test [9], more than 82.5 µM.

With `O=c1c2ccccc2nc(-c2ccc(Cl)cc2)n1O`, the TGI was more than 100 µM in test [1]; 9.61 µM in test [2]; more than 100 µM in test [3]; 59.8 µM in [4]; more than 100 µM in [5]; more than 100 µM in test [6]. The TGI in test [7], in test [8] and in test [9] was more than 100 µM each time.

Turning to `O=C1c2cccnc2-c2nc(-c3ccc([N+](=O)[O-])cc3)cc3c2c1nc1ccccc13`, the GI50 in test [1] is 5.54 µM; in [2] it was 7.09 µM; in test [3] it was 8.88 µM; in test [5], 9.63 µM; in test [6] it was 1690 nM; in test [7] it was 24.2 µM. In addition, the GI50 in test [10] is 2150 nM; in test [8] it was 2.58 µM; in test [9], 3.08 µM. Besides, the TGI in test [1] was 11.9 µM; in test [2], 26 µM; in [3], 71.5 µM; in test [5], 33.4 µM; in [6], 3.06 µM; in test [7], 65.5 µM. Besides, the TGI in test [10] is 6.32 µM; in [8], 8.3 µM; in [9], 19.8 µM.

Consider `O=Cc1ccc(C(F)(F)F)cc1.[C-]#[O+].[C-]#[O+].[C-]#[O+].[Cr]`, for which the GI50 in test [1] is 27.4 µM; in test [2], 18.7 µM; in [4], 9.87 µM; in [5], 21.6 µM; in test [6] it was 14300 nM; in [7], 21.4 µM. Also, the results for the GI50 in test [10], in test [8] and in test [9] were 26800 nM, 23 µM and 21 µM, respectively. The TGI in [1] is more than 100 µM; in test [2], more than 100 µM; in [4], 65.1 µM; in test [5], 98.4 µM; in test [6], 45.7 µM; in test [7] it was more than 100 µM. In addition, the TGI in test [10] was 91 µM; in test [8] it was more than 100 µM; in test [9], more than 100 µM.

Take `Fc1ccc(Nc2nc(Nc3ccc(-c4nc5ccccc5[nH]4)cc3)nc(N3CCCC3)n2)cc1`: the GI50 in test [1] was 1.81 µM; in test [3] it was 2.28 µM; in test [4] it was 2.98 µM; in [5] it was 14.2 µM; in [6], 3380 nM; in test [7] it was 12.8 µM. The results for the GI50 in test [10], in test [8] and in [9] were 2170 nM, 3.07 µM and 2.67 µM, respectively. Further, the TGI in [1] stood at 3.73 µM; in test [3], 6.3 µM; in test [4] it was 10.4 µM; in [5], 34.9 µM; in test [6], 11.3 µM; in test [7], 25.7 µM. For the same molecule, the figures for the TGI in test [10], in test [8] and in test [9] were 4.81 µM, 9.1 µM and 7.99 µM, respectively.

`CCOC1NC(=O)Oc2ccccc21` (stereo not given): the TGI in test [1], in [2], in [4], in test [5], in test [6] and in test [7] was more than 100 µM in each case. In addition, the TGI in test [10], in test [8] and in test [9] was more than 100 µM in each case.
